PubChem BioAssay (NCI)
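Briefly, cells in 96-well plates were exposed to five compound concentrations for 48 h, and endpoints were estimated by linear interpolation. At the GI50, growth is halved. TGI denotes the concentration required for complete inhibition of growth.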

Key:
Experiment in all cases: inhibition of tumour cell growth, NCI panel, 48 h
HCC-2998 colon = system: HCC-2998 colon
HCT-116 colon = system: HCT-116 colon
HT29 colon = system: HT29 colon
M14 melanoma = system: M14 melanoma
HCT-15 colon = system: HCT-15 colon
ACHN renal = system: ACHN renal
SF-295 CNS = system: SF-295 CNS
NCI/ADR-RES ovarian = system: NCI/ADR-RES ovarian
CAKI-1 renal = system: CAKI-1 renal
A498 renal = system: A498 renal

SMILES	GI50 (HCC-2998 colon) [µM]	TGI (HCC-2998 colon) [µM]	GI50 (HCT-116 colon) [µM]	TGI (HCT-116 colon) [µM]	GI50 (HT29 colon) [µM]	TGI (HT29 colon) [µM]	GI50 (M14 melanoma) [µM]	TGI (M14 melanoma) [µM]	GI50 (HCT-15 colon) [µM]	TGI (HCT-15 colon) [µM]	GI50 (ACHN renal) [µM]	TGI (ACHN renal) [µM]	GI50 (SF-295 CNS) [µM]	TGI (SF-295 CNS) [µM]	GI50 (NCI/ADR-RES ovarian) [µM]	TGI (NCI/ADR-RES ovarian) [µM]	GI50 (CAKI-1 renal) [µM]	TGI (CAKI-1 renal) [µM]	GI50 (A498 renal) [µM]	TGI (A498 renal) [µM]
COc1ccc2c(c1)C(=O)c1c-2c(Nc2ccccc2OC)nc2ccccc12	> 100	> 100	> 100	> 100	> 100	> 100	> 100	> 100	> 100	> 100	89.2	> 100	> 100	> 100	> 100	> 100	> 100	> 100	> 100	> 100
N#CC1(c2ccc(NC(=O)c3cccnc3NCc3ccncc3)cc2)CCCC1	25.8	> 100	12.1	32	9.96	> 56.2	16.1	> 67.1	8.12	39.3	12.4	> 70.9	9.38	27.3	12.9	62.5	16.8	> 85.9	10.2	60.9
CC(Br)C(=O)NC(CO)C(=O)O (configuration not stated)				> 100		> 100		> 100		> 100		> 100		> 100		> 100		> 100		> 100
CC1=C(C(=O)Nc2ccccc2)C(c2ccc(N(C)C)cc2)C(C(=O)Nc2ccccc2)=C(C)N1		23.4		> 57.3		> 75.8		> 56		15.3		> 73.6		50.2		> 100		> 100		> 100
CC(=O)O[C@H]1C(=O)[C@@]2(C)C([C@H](OC(=O)c3ccccc3)[C@]3(O)C[C@H](OC(=O)[C@H](O)[C@@H](NC(=O)c4ccccc4)c4ccccc4)C(C)=C1C3(C)C)[C@]1(OC(C)=O)CO[C@@H]1C[C@@H]2O (some centres not stated)	0.00868		< 0.005	> 50	< 0.005				0.382	> 50	0.945	> 50	0.0173	> 50	1.81	41.9		> 50	0.0161	> 50
CC(C)(CO)CNC(=O)c1ccc2[nH]c(O)c(N=Nc3ccc(S(N)(=O)=O)cc3)c2c1	> 25	> 25	> 25	> 25	> 25	> 25	> 25	> 25	> 25	> 25	> 25	> 25	> 25	> 25	> 25	> 25	> 25	> 25	> 25	> 25
CN[C@@H](C)C(=O)N[C@H]1CN(S(=O)(=O)c2cccc(S(=O)(=O)N3CC[C@H]4CC[C@@H](C(=O)NC(c5ccccc5)c5ccccc5)N4C(=O)[C@@H](NC(=O)[C@H](C)NC)C3)c2)CC[C@H]2CC[C@@H](C(=O)NC(c3ccccc3)c3ccccc3)N2C1=O	11	27.2	18.4	51.2	20.7	> 48.3	34.3	> 100	> 93.6	> 100	> 79.7	> 100	14.4	> 71.4	> 100	> 100	58.4	> 100	32.6	> 67.7
COc1ccc2c(c1)c(-c1nc(-c3c[nH]c4ncccc34)cs1)cn2CCCN1CCOCC1	2.04	4.34	1.85	4.04	2.22	6.4	1.77	3.58	2.32	7.7	2.5	8.22	1.91	4.17	3.02	11.3	1.88	4.67	0.481	2.04
COc1ccc2c(N)ncc(C#Cc3cc(C(=O)Nc4ccc(CN5CCN(C)CC5)c(C(F)(F)F)c4)cnc3C)c2c1	1.42	5.36	0.483	1.05	0.194	0.876	0.225	0.934	0.386	0.956	0.436	1.15	4.78	16.7	1.69	7.42	1.36	8.62	0.842	3
CN(C)CCCC1(c2ccc(F)cc2)OCc2cc(-c3cccc4[nH]ccc34)ccc21 (configuration not stated)	1.54	2.94	1.37	2.82	1.6	3.39	1.66	3.33	1.83	3.42	1.68	3.04	1.84	3.44	1.72	3.38	1.41	2.77	1.56	2.96
Cc1ccc(O)cc1Nc1ccnc2ccc(S(C)(=O)=O)cc12	10	> 25	3.53	> 25	0.433	2.92	0.939	> 21.8	11.4	> 25	0.612	7.75	3.34	> 25	15.9	> 25	0.74	5.12	1.75	6.18
OCc1cc2c(cn1)[nH]c1ccc(NCc3ccccc3)cc12		58.9		38.4		32.2		37.5		> 100		> 100		59.9				> 100		71.7
CCn1cc(C(=O)O)c(=O)c2cc(F)c(N3CCN(S(=O)(=O)c4cccc5ccccc45)CC3)cc21	4.26	61.9	3.88	> 100	3.95	> 100	4.37	> 100	3.15	> 100	2.88	> 100			3.2	> 100			2.74	> 100
O=c1/c(=C/c2ccccc2[N+](=O)[O-])sc2nnc(-c3cccnc3)n12		> 100		> 100		> 100		> 100		> 100		> 100		> 100				2.78		> 100
COC(=O)OC1C(O[C@H]2C[C@H]3[C@@H]4CC=C5C[C@@H](O)CC[C@]5(C)[C@H]4CC[C@]3(C)[C@H]2[C@H](C)C(=O)CCC(C)C)OCC(O)C1OC1OCC(O)C(O)C1OC(=O)c1ccc(OC)cc1 (some centres not stated)	1.44	> 27.5	0.00886	> 27.5	0.0415	> 27.5			0.137	1.26	0.0721	> 27.5	< 0.00275	< 0.00275	> 27.5	> 27.5	0.0191	0.447	< 0.00275	0.0108
FC(F)(F)Oc1cccc(-c2cc(NCCCCCCNc3cc(-c4cccc(OC(F)(F)F)c4)nc4ccc(N5CCCC5)cc34)c3cc(N4CCCC4)ccc3n2)c1	1.74	3.27	2.21	5.54	2.15	4.35	1.84	3.65	1.84	3.69			1.69	3.11	2.07	4.5	1.65	3.01	2.05	3.57
CCc1ccccc1NC(=O)c1cccc([N+](=O)[O-])c1O		> 100		87.5		> 100		> 100		> 100		62		32.2				> 100		88.2
CSC1=Nc2c(c(C)c(C)n2COC(CO)CO)C2=NC(=O)CN12	> 100	> 100	> 100	> 100	> 100	> 100			> 100	> 100	> 100	> 100	> 100	> 100	> 100	> 100	> 100	> 100	> 100	> 100
Cc1ccc(S(=O)(=O)OCC/C(=C\[Si](C)(C)C)c2ccccc2)cc1		> 100		> 100		> 100		> 100		> 100		> 100		> 100				> 100		> 100
COc1cc2oc(-c3ccc(O)cc3)cc(=O)c2c(O)c1C1OC(CO)C(O)C(O)C1O (configuration not stated)		> 100		> 100		> 100		> 100		> 100		> 100		> 100				> 100		> 100
COc1cc(CNc2nc3cc(N)cc(N)c3nc2-c2ccccc2)cc(OC)c1			3.08	11.3	8.17	44.4	10.1	49.3	19.3	> 100	9.42	47.3	14.2	35.1	5.47	33.2	16	> 100	90.8	> 100
O=c1cc(O)cc2n1CCC2		> 100		> 100		> 100		> 100		> 100		> 100		> 100				> 100		> 100
N#C/C(=C\c1cc(OCc2ccccc2)c(OCc2ccccc2)cn1)C(N)=O		> 100		> 100		> 100		> 100		> 100		> 100		> 100				> 100		> 100
CCOC(=O)c1nc(C)oc1C(F)(F)F		> 100		> 100		> 100		> 100		> 100		> 100		> 100				> 100		> 100
CCN(CC)Cc1cc(Nc2nc(NC3CCC(N(C)C)CC3)c3ccccc3n2)ccc1OC (configuration not stated)	10.4	22.2	3.37	12.8	2.42	7.11	1.91	3.57	15.2	35.3	11	24.8	2.33	7.01			30.9	> 100	12.5	25.2
COc1ccc(OC)c(/C=C/c2nc(=S)n(-c3ccc(Cl)cc3)[nH]2)c1	13.3	> 100	4.05	> 100	3.67	> 100	4.24	> 100	4.39	> 100	23.8	> 100	4.16	> 100	3.63	> 100			6.66	> 100
COc1ccc(OC)c(NCC(=O)n2nc(/C=C\c3ccc(O)c(OC)c3)cc2/C=C\c2ccc(O)c(OC)c2)c1	2.04	3.98			1.73	3.81	2.02	6.18	2.09	11.8			2.44	6.08	3.5	> 100			1.6	5.7
CCCCCCCCCCCC[N+]1(CCCCCCCCCCCC)CCCC(C)C1 (configuration not stated)	0.303	1.38	0.185	1.21	0.186	1.09					0.984	2.27	0.259	1.29	4.41	> 100		1.92	1.26	2.52
O=C(Nc1ccc(N=C=S)cc1Cl)c1cc(Br)cc(Br)c1O				31.7		38		> 100		31.3		83.8		> 100		58		> 100		
